Active and inactive are the calls of the source. Rule as the data show it, for most assays here: actives have a measured Kd and inactives only a lower limit.
The molecules below were run against Serine/threonine-protein kinase 16 (Homo sapiens, UniProt O75716).
Sequence of Serine/threonine-protein kinase 16 (O75716 whole entry): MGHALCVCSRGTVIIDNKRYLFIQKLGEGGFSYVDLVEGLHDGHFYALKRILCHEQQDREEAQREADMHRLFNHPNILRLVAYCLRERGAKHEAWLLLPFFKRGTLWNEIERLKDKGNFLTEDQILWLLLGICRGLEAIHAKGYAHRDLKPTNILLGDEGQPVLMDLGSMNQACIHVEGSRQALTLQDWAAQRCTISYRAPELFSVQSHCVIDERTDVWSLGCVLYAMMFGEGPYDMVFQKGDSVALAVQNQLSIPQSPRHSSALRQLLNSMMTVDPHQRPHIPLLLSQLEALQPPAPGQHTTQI
`CN1CC[C@@H](c2c(O)cc(O)c3c(=O)cc(-c4ccccc4Cl)oc23)[C@@H]1CO` was tested, and the Kd was > 30 µM (inactive).
With `Cc1cc(-c2cc(O)ccc2Cl)cc2nnc(Nc3ccc(OCCN4CCCC4)cc3)nc12` the Kd was > 30 µM (inactive).
With `COc1cc(N2CCC(N3CCN(C)CC3)CC2)ccc1Nc1ncnc(Nc2ccccc2S(=O)(=O)C(C)C)n1` [ASP-3026] the Kd was > 30 µM (inactive).

The molecules below were run against Tyrosine-protein kinase Yes (Homo sapiens, UniProt P07947).
Sequence of Tyrosine-protein kinase Yes (P07947 whole entry): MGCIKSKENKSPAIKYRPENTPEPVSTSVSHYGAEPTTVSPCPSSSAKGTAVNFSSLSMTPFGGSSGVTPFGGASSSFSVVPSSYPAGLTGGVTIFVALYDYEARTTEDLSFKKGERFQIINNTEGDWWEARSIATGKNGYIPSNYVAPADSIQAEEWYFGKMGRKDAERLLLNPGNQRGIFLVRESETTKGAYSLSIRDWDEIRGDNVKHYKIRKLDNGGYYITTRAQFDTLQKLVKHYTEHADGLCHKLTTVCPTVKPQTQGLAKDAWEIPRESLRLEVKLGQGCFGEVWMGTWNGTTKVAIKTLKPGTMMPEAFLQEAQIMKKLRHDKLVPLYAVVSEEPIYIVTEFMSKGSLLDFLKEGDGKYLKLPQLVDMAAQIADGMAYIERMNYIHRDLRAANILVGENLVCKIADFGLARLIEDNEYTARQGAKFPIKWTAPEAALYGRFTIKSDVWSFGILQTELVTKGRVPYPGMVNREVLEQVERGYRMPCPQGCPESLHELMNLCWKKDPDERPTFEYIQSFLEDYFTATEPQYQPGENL
For `CN1CC[C@@H](c2c(O)cc(O)c3c(=O)cc(-c4ccccc4Cl)oc23)[C@@H]1CO`, the Kd was > 30 µM (inactive).
For `Cc1cc(-c2cc(O)ccc2Cl)cc2nnc(Nc3ccc(OCCN4CCCC4)cc3)nc12`, the Kd was 0.001 µM (active).
In the case of `COc1cc(N2CCC(N3CCN(C)CC3)CC2)ccc1Nc1ncnc(Nc2ccccc2S(=O)(=O)C(C)C)n1` [ASP-3026], the Kd is reported as 0.781 µM (active).

The molecules below were run against T1, Ferrochelatase, mitochondrial (Homo sapiens, UniProt P22830).
T1 sequence (P22830 whole entry): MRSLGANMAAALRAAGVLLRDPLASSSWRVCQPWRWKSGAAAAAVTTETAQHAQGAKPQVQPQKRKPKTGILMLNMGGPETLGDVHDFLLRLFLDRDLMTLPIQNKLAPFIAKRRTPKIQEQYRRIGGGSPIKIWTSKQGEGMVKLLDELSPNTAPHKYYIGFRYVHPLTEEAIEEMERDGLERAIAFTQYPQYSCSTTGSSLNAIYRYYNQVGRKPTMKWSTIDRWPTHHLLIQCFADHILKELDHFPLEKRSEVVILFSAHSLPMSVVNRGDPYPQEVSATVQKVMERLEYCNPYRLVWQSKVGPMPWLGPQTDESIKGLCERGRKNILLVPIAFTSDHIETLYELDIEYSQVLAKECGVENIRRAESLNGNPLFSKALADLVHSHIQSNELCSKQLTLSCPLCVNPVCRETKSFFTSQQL
For `CN1CC[C@@H](c2c(O)cc(O)c3c(=O)cc(-c4ccccc4Cl)oc23)[C@@H]1CO`, the Kd was > 30 µM (inactive).
For `Cc1cc(-c2cc(O)ccc2Cl)cc2nnc(Nc3ccc(OCCN4CCCC4)cc3)nc12`, the Kd was > 30 µM (inactive).
In the case of `COc1cc(N2CCC(N3CCN(C)CC3)CC2)ccc1Nc1ncnc(Nc2ccccc2S(=O)(=O)C(C)C)n1` [ASP-3026], the Kd is reported as > 30 µM (inactive).

Each molecule was assayed against Proto-oncogene tyrosine-protein kinase Src (Homo sapiens, UniProt P12931).
Sequence of Proto-oncogene tyrosine-protein kinase Src (P12931 2-536 limits assumed): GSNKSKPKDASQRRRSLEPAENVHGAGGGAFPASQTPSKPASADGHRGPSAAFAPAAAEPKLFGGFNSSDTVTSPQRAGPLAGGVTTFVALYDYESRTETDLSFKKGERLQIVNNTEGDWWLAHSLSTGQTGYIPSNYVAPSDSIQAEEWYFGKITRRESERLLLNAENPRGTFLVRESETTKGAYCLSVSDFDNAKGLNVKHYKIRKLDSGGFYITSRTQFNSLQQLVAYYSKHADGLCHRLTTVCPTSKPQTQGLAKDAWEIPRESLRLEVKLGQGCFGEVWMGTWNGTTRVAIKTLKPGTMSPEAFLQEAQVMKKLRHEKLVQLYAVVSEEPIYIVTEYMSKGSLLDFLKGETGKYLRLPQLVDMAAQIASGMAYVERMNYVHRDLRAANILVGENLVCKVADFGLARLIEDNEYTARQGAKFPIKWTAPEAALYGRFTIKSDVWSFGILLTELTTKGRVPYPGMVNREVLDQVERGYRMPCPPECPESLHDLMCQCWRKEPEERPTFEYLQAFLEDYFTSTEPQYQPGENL
With `CN1CC[C@@H](c2c(O)cc(O)c3c(=O)cc(-c4ccccc4Cl)oc23)[C@@H]1CO` the Kd was > 30 µM (inactive).
`Cc1cc(-c2cc(O)ccc2Cl)cc2nnc(Nc3ccc(OCCN4CCCC4)cc3)nc12` was tested, and the Kd was 0.001 µM (active).
With `COc1cc(N2CCC(N3CCN(C)CC3)CC2)ccc1Nc1ncnc(Nc2ccccc2S(=O)(=O)C(C)C)n1` [ASP-3026] the Kd was > 30 µM (inactive).

The molecules below were run against T2, Ras-related protein Rab-27A (Homo sapiens, UniProt P51159).
T2 sequence (P51159 whole entry): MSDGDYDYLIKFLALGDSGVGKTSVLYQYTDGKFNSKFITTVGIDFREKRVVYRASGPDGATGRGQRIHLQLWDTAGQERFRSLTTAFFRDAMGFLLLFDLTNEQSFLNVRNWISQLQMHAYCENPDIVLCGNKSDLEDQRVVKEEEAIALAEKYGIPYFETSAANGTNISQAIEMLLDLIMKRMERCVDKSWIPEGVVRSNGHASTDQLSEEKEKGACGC
In the case of `CN1CC[C@@H](c2c(O)cc(O)c3c(=O)cc(-c4ccccc4Cl)oc23)[C@@H]1CO`, the Kd is reported as > 30 µM (inactive).
`Cc1cc(-c2cc(O)ccc2Cl)cc2nnc(Nc3ccc(OCCN4CCCC4)cc3)nc12` was tested, and the Kd was > 30 µM (inactive).
With `COc1cc(N2CCC(N3CCN(C)CC3)CC2)ccc1Nc1ncnc(Nc2ccccc2S(=O)(=O)C(C)C)n1` [ASP-3026] the Kd was > 30 µM (inactive).

Each molecule was assayed against T3, DNA replication licensing factor MCM4 (Homo sapiens, UniProt P33991).
T3 sequence (P33991 whole entry): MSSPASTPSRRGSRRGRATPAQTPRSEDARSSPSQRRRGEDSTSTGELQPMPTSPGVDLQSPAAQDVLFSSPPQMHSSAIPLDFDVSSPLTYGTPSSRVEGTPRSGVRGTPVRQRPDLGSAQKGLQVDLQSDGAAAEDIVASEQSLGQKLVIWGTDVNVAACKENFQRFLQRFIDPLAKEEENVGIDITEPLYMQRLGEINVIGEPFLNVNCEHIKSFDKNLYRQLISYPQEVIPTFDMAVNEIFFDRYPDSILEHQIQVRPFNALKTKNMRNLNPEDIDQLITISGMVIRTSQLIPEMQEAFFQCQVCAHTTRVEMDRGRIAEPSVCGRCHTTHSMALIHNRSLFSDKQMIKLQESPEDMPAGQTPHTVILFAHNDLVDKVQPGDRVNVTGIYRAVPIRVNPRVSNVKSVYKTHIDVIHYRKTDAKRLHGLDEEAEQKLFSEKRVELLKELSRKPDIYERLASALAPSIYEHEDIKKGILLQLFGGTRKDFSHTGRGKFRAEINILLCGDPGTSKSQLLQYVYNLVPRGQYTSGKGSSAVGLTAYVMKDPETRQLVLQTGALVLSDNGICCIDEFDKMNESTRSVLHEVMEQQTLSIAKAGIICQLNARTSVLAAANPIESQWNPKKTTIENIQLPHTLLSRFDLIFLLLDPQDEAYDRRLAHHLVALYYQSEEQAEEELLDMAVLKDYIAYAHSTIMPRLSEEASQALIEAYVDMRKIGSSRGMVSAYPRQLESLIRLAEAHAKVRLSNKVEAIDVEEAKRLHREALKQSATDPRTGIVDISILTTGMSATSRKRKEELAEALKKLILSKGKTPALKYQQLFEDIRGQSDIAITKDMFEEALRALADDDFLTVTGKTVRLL
For `CN1CC[C@@H](c2c(O)cc(O)c3c(=O)cc(-c4ccccc4Cl)oc23)[C@@H]1CO`, the Kd was > 30 µM (inactive).
With `Cc1cc(-c2cc(O)ccc2Cl)cc2nnc(Nc3ccc(OCCN4CCCC4)cc3)nc12` the Kd was > 30 µM (inactive).
With `COc1cc(N2CCC(N3CCN(C)CC3)CC2)ccc1Nc1ncnc(Nc2ccccc2S(=O)(=O)C(C)C)n1` [ASP-3026] the Kd was > 30 µM (inactive).

These molecules were tested against Protein-tyrosine kinase 6 (Homo sapiens, UniProt Q13882).
`CN1CC[C@@H](c2c(O)cc(O)c3c(=O)cc(-c4ccccc4Cl)oc23)[C@@H]1CO` was tested, and the Kd was > 30 µM (inactive).
For `Cc1cc(-c2cc(O)ccc2Cl)cc2nnc(Nc3ccc(OCCN4CCCC4)cc3)nc12`, the Kd was > 30 µM (inactive).
With `COc1cc(N2CCC(N3CCN(C)CC3)CC2)ccc1Nc1ncnc(Nc2ccccc2S(=O)(=O)C(C)C)n1` [ASP-3026] the Kd was 0.061 µM (active).

What follows are molecules tested against Mitotic checkpoint serine/threonine-protein kinase BUB1 (Homo sapiens, UniProt O43683).
Sequence of Mitotic checkpoint serine/threonine-protein kinase BUB1 (O43683 whole entry): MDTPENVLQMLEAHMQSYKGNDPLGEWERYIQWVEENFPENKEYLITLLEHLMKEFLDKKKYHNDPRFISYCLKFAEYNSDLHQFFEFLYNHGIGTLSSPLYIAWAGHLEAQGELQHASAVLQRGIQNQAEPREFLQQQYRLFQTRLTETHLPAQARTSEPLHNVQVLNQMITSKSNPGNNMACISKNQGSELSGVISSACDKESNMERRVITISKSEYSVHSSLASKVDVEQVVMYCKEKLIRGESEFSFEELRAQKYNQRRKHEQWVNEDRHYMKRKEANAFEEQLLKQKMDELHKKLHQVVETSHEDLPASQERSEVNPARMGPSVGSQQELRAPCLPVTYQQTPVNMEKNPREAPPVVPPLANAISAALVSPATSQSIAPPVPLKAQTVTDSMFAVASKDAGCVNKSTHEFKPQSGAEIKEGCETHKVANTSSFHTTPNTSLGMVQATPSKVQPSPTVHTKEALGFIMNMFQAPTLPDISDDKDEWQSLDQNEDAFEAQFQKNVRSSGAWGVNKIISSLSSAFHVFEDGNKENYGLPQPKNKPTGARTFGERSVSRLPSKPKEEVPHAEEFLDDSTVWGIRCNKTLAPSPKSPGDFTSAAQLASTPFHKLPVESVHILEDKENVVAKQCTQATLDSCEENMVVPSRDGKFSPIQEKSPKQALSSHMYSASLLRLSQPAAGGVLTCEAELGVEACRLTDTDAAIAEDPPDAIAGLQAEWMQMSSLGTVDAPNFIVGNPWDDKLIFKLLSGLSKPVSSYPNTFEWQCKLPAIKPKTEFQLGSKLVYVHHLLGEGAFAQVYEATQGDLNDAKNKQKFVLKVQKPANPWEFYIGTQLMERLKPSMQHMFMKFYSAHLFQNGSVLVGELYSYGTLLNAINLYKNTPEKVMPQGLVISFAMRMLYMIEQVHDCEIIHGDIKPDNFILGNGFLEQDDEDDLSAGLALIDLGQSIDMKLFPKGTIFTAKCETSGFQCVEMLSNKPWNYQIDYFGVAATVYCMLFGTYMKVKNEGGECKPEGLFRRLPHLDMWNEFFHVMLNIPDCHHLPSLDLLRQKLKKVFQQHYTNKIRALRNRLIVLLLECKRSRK
For `CN1CC[C@@H](c2c(O)cc(O)c3c(=O)cc(-c4ccccc4Cl)oc23)[C@@H]1CO`, the Kd was > 30 µM (inactive).
For `Cc1cc(-c2cc(O)ccc2Cl)cc2nnc(Nc3ccc(OCCN4CCCC4)cc3)nc12`, the Kd was > 30 µM (inactive).
In the case of `COc1cc(N2CCC(N3CCN(C)CC3)CC2)ccc1Nc1ncnc(Nc2ccccc2S(=O)(=O)C(C)C)n1` [ASP-3026], the Kd is reported as > 30 µM (inactive).

Each molecule was assayed against T4, ADP/ATP translocase 3 (Homo sapiens, UniProt P12236).
T4 sequence (P12236 whole entry): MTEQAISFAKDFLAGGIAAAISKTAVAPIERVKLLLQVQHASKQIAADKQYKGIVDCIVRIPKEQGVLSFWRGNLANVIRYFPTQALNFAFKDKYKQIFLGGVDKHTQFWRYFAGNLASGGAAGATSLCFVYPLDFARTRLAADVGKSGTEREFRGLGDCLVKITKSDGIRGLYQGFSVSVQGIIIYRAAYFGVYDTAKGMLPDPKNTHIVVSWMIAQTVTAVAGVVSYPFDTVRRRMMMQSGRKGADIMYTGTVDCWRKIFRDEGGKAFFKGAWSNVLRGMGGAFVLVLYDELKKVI
In the case of `CN1CC[C@@H](c2c(O)cc(O)c3c(=O)cc(-c4ccccc4Cl)oc23)[C@@H]1CO`, the Kd is reported as > 30 µM (inactive).
For `Cc1cc(-c2cc(O)ccc2Cl)cc2nnc(Nc3ccc(OCCN4CCCC4)cc3)nc12`, the Kd was > 30 µM (inactive).
With `COc1cc(N2CCC(N3CCN(C)CC3)CC2)ccc1Nc1ncnc(Nc2ccccc2S(=O)(=O)C(C)C)n1` [ASP-3026] the Kd was > 30 µM (inactive).

What follows are molecules tested against Ras-related protein Rab-6A (Homo sapiens, UniProt P20340).
Sequence of Ras-related protein Rab-6A (P20340 whole entry): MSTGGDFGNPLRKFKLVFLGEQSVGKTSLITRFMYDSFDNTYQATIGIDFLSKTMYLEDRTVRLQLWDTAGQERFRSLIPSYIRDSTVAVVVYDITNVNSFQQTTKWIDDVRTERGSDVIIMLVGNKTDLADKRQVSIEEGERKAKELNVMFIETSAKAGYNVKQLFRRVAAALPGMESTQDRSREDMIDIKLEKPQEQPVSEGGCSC
With `CN1CC[C@@H](c2c(O)cc(O)c3c(=O)cc(-c4ccccc4Cl)oc23)[C@@H]1CO` the Kd was > 30 µM (inactive).
In the case of `Cc1cc(-c2cc(O)ccc2Cl)cc2nnc(Nc3ccc(OCCN4CCCC4)cc3)nc12`, the Kd is reported as > 30 µM (inactive).
With `COc1cc(N2CCC(N3CCN(C)CC3)CC2)ccc1Nc1ncnc(Nc2ccccc2S(=O)(=O)C(C)C)n1` [ASP-3026] the Kd was > 30 µM (inactive).

The molecules below were run against Rho-associated protein kinase 1 (Homo sapiens, UniProt Q13464).
Sequence of Rho-associated protein kinase 1 (Q13464 whole entry): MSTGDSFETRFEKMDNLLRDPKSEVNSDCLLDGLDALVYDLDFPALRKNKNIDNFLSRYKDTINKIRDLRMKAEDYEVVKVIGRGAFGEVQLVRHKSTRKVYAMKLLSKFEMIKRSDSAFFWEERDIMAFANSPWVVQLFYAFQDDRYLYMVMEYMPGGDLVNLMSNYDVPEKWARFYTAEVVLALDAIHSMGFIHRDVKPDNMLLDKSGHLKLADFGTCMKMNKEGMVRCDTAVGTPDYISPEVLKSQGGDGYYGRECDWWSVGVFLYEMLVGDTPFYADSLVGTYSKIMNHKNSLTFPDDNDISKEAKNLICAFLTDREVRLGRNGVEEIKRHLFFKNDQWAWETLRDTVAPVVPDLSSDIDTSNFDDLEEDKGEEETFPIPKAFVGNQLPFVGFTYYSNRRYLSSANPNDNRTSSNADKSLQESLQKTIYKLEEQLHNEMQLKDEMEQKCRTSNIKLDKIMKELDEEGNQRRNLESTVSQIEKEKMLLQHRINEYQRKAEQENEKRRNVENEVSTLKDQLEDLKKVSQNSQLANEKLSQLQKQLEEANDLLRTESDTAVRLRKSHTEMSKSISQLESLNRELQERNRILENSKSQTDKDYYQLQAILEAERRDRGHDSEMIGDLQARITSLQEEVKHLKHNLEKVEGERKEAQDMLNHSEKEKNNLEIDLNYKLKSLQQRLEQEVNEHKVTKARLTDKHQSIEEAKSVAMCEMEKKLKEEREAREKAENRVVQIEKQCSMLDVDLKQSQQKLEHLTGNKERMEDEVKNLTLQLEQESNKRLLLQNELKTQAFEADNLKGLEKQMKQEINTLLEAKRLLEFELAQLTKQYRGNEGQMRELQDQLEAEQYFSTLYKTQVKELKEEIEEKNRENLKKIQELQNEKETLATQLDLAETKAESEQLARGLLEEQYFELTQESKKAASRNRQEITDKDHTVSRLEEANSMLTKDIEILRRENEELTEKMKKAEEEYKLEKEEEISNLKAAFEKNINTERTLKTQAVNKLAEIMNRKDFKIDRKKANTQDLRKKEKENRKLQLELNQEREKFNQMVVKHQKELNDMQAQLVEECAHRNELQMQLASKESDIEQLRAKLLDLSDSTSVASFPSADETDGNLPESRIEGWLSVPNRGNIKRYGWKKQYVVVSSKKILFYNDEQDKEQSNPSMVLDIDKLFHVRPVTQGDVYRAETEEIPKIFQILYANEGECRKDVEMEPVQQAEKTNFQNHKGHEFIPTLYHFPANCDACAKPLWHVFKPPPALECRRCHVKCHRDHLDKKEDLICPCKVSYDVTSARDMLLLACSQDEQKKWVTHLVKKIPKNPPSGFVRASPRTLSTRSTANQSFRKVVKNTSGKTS
With `CN1CC[C@@H](c2c(O)cc(O)c3c(=O)cc(-c4ccccc4Cl)oc23)[C@@H]1CO` the Kd was > 30 µM (inactive).
`Cc1cc(-c2cc(O)ccc2Cl)cc2nnc(Nc3ccc(OCCN4CCCC4)cc3)nc12` was tested, and the Kd was > 30 µM (inactive).
In the case of `COc1cc(N2CCC(N3CCN(C)CC3)CC2)ccc1Nc1ncnc(Nc2ccccc2S(=O)(=O)C(C)C)n1` [ASP-3026], the Kd is reported as > 30 µM (inactive).

What follows are molecules tested against Mitogen-activated protein kinase kinase kinase kinase 5 (Homo sapiens, UniProt Q9Y4K4).
Sequence of Mitogen-activated protein kinase kinase kinase kinase 5 (Q9Y4K4 whole entry): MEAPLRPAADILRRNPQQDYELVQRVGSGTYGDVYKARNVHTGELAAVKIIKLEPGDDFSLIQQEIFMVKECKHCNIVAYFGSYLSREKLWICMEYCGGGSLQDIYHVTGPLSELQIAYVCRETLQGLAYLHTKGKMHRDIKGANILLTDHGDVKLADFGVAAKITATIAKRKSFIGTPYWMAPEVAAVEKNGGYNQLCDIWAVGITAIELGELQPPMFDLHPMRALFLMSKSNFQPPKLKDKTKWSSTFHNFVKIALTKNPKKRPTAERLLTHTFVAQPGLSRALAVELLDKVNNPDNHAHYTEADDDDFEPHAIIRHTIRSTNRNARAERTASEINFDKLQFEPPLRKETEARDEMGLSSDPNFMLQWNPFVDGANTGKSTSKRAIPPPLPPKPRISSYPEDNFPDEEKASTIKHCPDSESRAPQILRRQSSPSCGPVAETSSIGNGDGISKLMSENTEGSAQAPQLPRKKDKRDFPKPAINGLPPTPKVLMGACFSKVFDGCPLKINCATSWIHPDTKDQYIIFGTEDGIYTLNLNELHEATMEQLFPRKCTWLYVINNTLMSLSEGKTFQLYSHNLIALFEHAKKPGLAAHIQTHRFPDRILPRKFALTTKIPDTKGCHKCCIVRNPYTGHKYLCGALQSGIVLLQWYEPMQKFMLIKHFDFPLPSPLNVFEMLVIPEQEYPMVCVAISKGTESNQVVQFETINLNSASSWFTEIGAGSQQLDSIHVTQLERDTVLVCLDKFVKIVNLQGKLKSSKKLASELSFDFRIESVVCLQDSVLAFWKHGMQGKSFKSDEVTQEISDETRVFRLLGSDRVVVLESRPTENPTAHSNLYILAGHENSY
`CN1CC[C@@H](c2c(O)cc(O)c3c(=O)cc(-c4ccccc4Cl)oc23)[C@@H]1CO` was tested, and the Kd was > 30 µM (inactive).
For `Cc1cc(-c2cc(O)ccc2Cl)cc2nnc(Nc3ccc(OCCN4CCCC4)cc3)nc12`, the Kd was > 30 µM (inactive).
For `COc1cc(N2CCC(N3CCN(C)CC3)CC2)ccc1Nc1ncnc(Nc2ccccc2S(=O)(=O)C(C)C)n1` [ASP-3026], the Kd was > 30 µM (inactive).

What follows are molecules tested against T5, Interleukin-1 receptor-associated kinase 3 (Homo sapiens, UniProt Q9Y616).
T5 sequence (Q9Y616 whole entry): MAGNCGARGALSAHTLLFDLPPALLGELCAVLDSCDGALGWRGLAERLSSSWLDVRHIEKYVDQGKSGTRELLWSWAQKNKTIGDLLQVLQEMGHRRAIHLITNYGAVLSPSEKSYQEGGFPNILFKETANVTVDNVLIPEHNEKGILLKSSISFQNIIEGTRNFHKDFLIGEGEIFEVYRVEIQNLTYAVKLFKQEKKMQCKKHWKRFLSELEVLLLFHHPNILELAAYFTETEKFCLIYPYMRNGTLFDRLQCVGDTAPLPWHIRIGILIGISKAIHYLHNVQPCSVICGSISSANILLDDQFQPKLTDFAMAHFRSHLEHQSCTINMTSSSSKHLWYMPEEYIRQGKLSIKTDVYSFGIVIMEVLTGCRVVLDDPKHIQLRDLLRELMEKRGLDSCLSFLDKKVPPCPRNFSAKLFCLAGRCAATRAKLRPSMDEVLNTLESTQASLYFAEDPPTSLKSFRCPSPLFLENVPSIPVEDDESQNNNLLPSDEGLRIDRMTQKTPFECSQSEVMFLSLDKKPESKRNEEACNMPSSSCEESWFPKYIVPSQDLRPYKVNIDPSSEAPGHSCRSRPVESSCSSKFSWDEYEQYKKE
For `CN1CC[C@@H](c2c(O)cc(O)c3c(=O)cc(-c4ccccc4Cl)oc23)[C@@H]1CO`, the Kd was > 30 µM (inactive).
For `Cc1cc(-c2cc(O)ccc2Cl)cc2nnc(Nc3ccc(OCCN4CCCC4)cc3)nc12`, the Kd was > 30 µM (inactive).
For `COc1cc(N2CCC(N3CCN(C)CC3)CC2)ccc1Nc1ncnc(Nc2ccccc2S(=O)(=O)C(C)C)n1` [ASP-3026], the Kd was > 30 µM (inactive).
Also: in the data inactive means no Kd found up to 30 µM.
